Data taken from paper PMC10897476, “Pyridylpiperazine efflux pump inhibitor boosts in vivo antibiotic efficacy against K. pneumoniae” (EMBO Molecular Medicine, 2023).
“And” between values parts separate entries of the source, which are not always exact repeats. Equal entries are not always repeated. Where two headings read alike, the source gives them in different places. Marks after values point to notes of the source that are not given here.

Key:
Assay type in all cases: cell-based, Klebsiella pneumoniae
[1] = system: K. pneumoniae AcrB^V448E; assay: Checkerboard assay levofloxacin x EPI, AcrB V448E mutant; conditions: for checkerboard growth readout: ATCC43816 AcrBV448E, EPI 0 µM; for percentage resazurin turnover: listed as Lev
Method: (§1) MIC experiments were carried out according to the CLSI guidelines (CLSI [2023]). Overnight cultures were diluted to an OD600 = 0.001 in CAMHB followed by addition of efflux pump inhibitors (EPIs) at a final concentration of 100 µM. […] Plates were incubated at 37 °C for up to 20 h. Bacterial viability was evaluated using the resazurin microtitre assay (REMA) and measured by fluorescence using a Tecan Spaert multimode plate reader (Ex: 530 nm Em: 590 nm). MICs were defined as the concentration that prevented 90% of resazurin turnover compared to the non-treated bacteria.
(§2) Bacterial suspensions, incubation and plate readouts were carried out as described above.

[2] = system: K. pneumoniae RamR^mut (K124*stop); assay: Checkerboard assay levofloxacin x EPI, RamR mutant; conditions: for checkerboard growth readout: ATCC43816 ramRmut, EPI 0 µM; for MIC: Klebsiella pneumoniae
Method: as §1, §2

[3] = system: K. pneumoniae AcrB^V448E RamR^mut; assay: Checkerboard assay levofloxacin x EPI, double mutant; conditions: ATCC43816 AcrBV448E ramRmut, EPI 0 µM
Method: as §1, §2

[4] = system: K. pneumoniae AcrB^V448E; assay: MIC of antibiotics with and without EPI (REMA), AcrB V448E mutant; conditions: for Minimum Inhibitory Concentration: K. pneumoniae AcrB^V448E
Method: as §1
Mutations in acrB or ramR identified in the BDM88855.HCl (1’) resistant mutant (a.k.a., KPJC11) were introduced individually into K. pneumoniae ATCC 43816 chromosome by allelic exchange (Cianfanelli et al, [2020]). Briefly, 1-kb PCR products centred around each point mutation were generated by amplifying acrB with primers RH1251 ([…][…]) and RH1252 ([…][…]) or ramR with primers RH1249 ([…][…]) and RH1250 ([…][…]) from KPJC11 genomic DNA. PCR fragments were cloned into pFOK (Cianfanelli et al, [2020]) using NEB-building kit ([New England Biolabs]) to generate pEP1533 and pEP1534. Correct plasmids were confirmed by sequencing and introduced into K. pneumoniae ATCC43816 WT via conjugation with the MFDpir+ E. coli donor strain. Exconjugants were selected on kanamycin (50 mg/L) plates at 37 °C and plasmid chromosomal integration was checked by PCR. […] The next day, cultures were diluted and plated onto LB agar. Isolated colonies were then patched onto LB plates with or without kanamycin (50 mg/L) and Km^S candidates were evaluated for correct allelic exchange via acrB or ramR sequencing and then WGS to confirm no additional mutations were introduced.

[5] = system: K. pneumoniae ATCC 43816 (WT); assay: Checkerboard assay levofloxacin x EPI, WT strain; conditions: for checkerboard growth readout: ATCC43816 WT, EPI 0 µM; for MIC: Klebsiella pneumoniae; for Median REMA values (percentage resazurin turnover): median n=3; for Median REMA values (percentage resazurin turnover) / percentage resazurin turnover: listed as Lev; for percentage resazurin turnover: individual replicates
Method: as §1, §2

[6] = Lev 0.24 ng/mL, BDM91288 0.00 uM
[7] = Lev 0.49 ng/mL, BDM91288 0.00 uM
[8] = Lev 0.98 ng/mL, BDM91288 0.00 uM
[9] = Lev 1.95 ng/mL, BDM91288 0.00 uM
[10] = Lev 3.91 ng/mL, BDM91288 0.00 uM
[11] = Lev 7.81 ng/mL, BDM91288 0.00 uM
[12] = Lev 15.63 ng/mL, BDM91288 0.00 uM
[13] = Lev 31.25 ng/mL, BDM91288 0.00 uM
[14] = Lev 62.50 ng/mL, BDM91288 0.00 uM
[15] = Lev 500.00 ng/mL, BDM91288 0.00 uM
[16] = Lev 1000 ng/mL, BDM91288 0.00 uM

## C[C@H]1COc2c(N3CCN(C)CC3)c(F)cc3c(=O)c(C(=O)O)cn1c23 [Levofloxacin]
[1]; levofloxacin 4 ng/mL
  checkerboard growth readout: 107 and 101
[1]; levofloxacin 8 ng/mL
  checkerboard growth readout: 111 and 91
[1]; levofloxacin 15.625 ng/mL
  checkerboard growth readout: 117 and 89
[1]; levofloxacin 31.25 ng/mL
  checkerboard growth readout: 91 and 81
[1]; [6]
  Median REMA values: 88%
  percentage resazurin turnover: 93% and 88% and 53%
[1]; Lev 0.24 ng/mL, PABN 0.00 uM
  Median REMA values: 81%
  percentage resazurin turnover: 88% and 81% and 56%
[1]; [7]
  Median REMA values: 105%
  percentage resazurin turnover: 102% and 108% and 105%
[1]; Lev 0.49 ng/mL, PABN 0.00 uM
  Median REMA values: 70%
  percentage resazurin turnover: 68% and 101% and 70%
[1]; [8]
  Median REMA values: 98%
  percentage resazurin turnover: 98% and 105% and 79%
[1]; Lev 0.98 ng/mL, PABN 0.00 uM
  Median REMA values: 106%
  percentage resazurin turnover: 106% and 107% and 72%
[1]; [9]
  Median REMA values: 108%
  percentage resazurin turnover: 108% and 109% and 104%
[1]; Lev 1.95 ng/mL, PABN 0.00 uM
  Median REMA values: 104%
  percentage resazurin turnover: 104% and 118% and 78%
[1]; [10]
  Median REMA values: 107%
  percentage resazurin turnover: 107% and 111% and 81%
[1]; Lev 3.91 ng/mL, PABN 0.00 uM
  Median REMA values: 101%
  percentage resazurin turnover: 101% and 111% and 73%
[1]; [11]
  Median REMA values: 111%
  percentage resazurin turnover: 111% and 76%
[1]; Lev 7.81 ng/mL, PABN 0.00 uM
  Median REMA values: 91%
  percentage resazurin turnover: 91% and 110% and 79%
[1]; [12]
  Median REMA values: 117%
  percentage resazurin turnover: 117% and 105%
[1]; Lev 15.63 ng/mL, PABN 0.00 uM
  Median REMA values: 89%
  percentage resazurin turnover: 119% and 89% and 72%
[1]; [13]
  Median REMA values: 91%
  percentage resazurin turnover: 91% and 87% and 102%
[1]; Lev 31.25 ng/mL, PABN 0.00 uM
  Median REMA values: 81%
  percentage resazurin turnover: 81% and 70%
[1]; [14]
  Median REMA values: -0.206%
  percentage resazurin turnover: -0.206% and -0.287% and -0.155%
[1]; Lev 62.50 ng/mL, PABN 0.00 uM
  Median REMA values: -0.817%
  percentage resazurin turnover: -0.685% and -0.817% and -0.819%
[1]; [15]
  Median REMA values: -0.289%
  percentage resazurin turnover: -0.289% and -0.371% and 0.114%
[1]; Lev 500.00 ng/mL, PABN 0.00 uM
  Median REMA values: -0.75%
  percentage resazurin turnover: -0.676% and -1% and -0.75%
[1]; [16]
  Median REMA values: 0.0503%
  percentage resazurin turnover: 0.0503% and -0.121% and 0.102%
[1]; Lev 1000 ng/mL, PABN 0.00 uM
  Median REMA values: -0.383%
  percentage resazurin turnover: -0.346% and -0.646% and -0.383%
[2]; levofloxacin 4 ng/mL
  checkerboard growth readout: 106 and 109
[2]; levofloxacin 8 ng/mL
  checkerboard growth readout: 110 and 118
[2]; levofloxacin 15.625 ng/mL
  checkerboard growth readout: 111 and 109
[2]; levofloxacin 62.5 ng/mL
  checkerboard growth readout: 111 and 123
[2]; levofloxacin 250 ng/mL
  checkerboard growth readout: 61 and 91
[2]; read-out: levofloxacin MIC (checkerboard)
  MIC: 0.5 µg/mL
[2]; read-out: levofloxacin boosted MIC (checkerboard)
  MIC: 0.016 µg/mL
[3]; levofloxacin 4 ng/mL
  checkerboard growth readout: 105 and 97
[3]; levofloxacin 8 ng/mL
  checkerboard growth readout: 113 and 94
[3]; levofloxacin 15.625 ng/mL
  checkerboard growth readout: 114 and 99
[3]; levofloxacin 31.25 ng/mL
  checkerboard growth readout: 121 and 95
[3]; levofloxacin 62.5 ng/mL
  checkerboard growth readout: 141 and 104
[3]; levofloxacin 250 ng/mL
  checkerboard growth readout: 148 and 137
[3]; levofloxacin 500 ng/mL
  checkerboard growth readout: 131 and 124
[4]; + 100 µM 1'
  Minimum Inhibitory Concentration: 0.03 mg/L
[4]; + 100 µM 5
  Minimum Inhibitory Concentration: 0.03 mg/L
[4]; + 100 µM PAβN
  Minimum Inhibitory Concentration: 0.02^# mg/L
[4]; Klebsiella pneumoniae, read-out: Minimum Inhibitory Concentration
  MIC: 0.04 µg/mL
[5]; levofloxacin 4 ng/mL
  checkerboard growth readout: 114 and 99
[5]; levofloxacin 8 ng/mL
  checkerboard growth readout: 102 and 104
[5]; levofloxacin 15.625 ng/mL
  checkerboard growth readout: 112 and 95
[5]; levofloxacin 31.25 ng/mL
  checkerboard growth readout: 88 and 69
[5]; ATCC43816, read-out: levofloxacin MIC (checkerboard)
  MIC: 0.0625 µg/mL
[5]; ATCC43816, read-out: levofloxacin boosted MIC (checkerboard)
  MIC: 0.016 µg/mL
[5]; Lev 0.24 ng/mL + EPI 0.00 uM
  Median REMA values (percentage resazurin turnover): 82% and 111%
[5]; Lev 0.49 ng/mL + EPI 0.00 uM
  Median REMA values (percentage resazurin turnover): 103% and 87%
[5]; Lev 0.98 ng/mL + EPI 0.00 uM
  Median REMA values (percentage resazurin turnover): 102% and 101%
[5]; Lev 1.95 ng/mL + EPI 0.00 uM
  percentage resazurin turnover: 92% and 97%
  Median REMA values (percentage resazurin turnover): 101% and 92%
[5]; Lev 3.91 ng/mL + EPI 0.00 uM
  percentage resazurin turnover: 128% and 114% and 108%
  Median REMA values (percentage resazurin turnover): 99% and 114%
[5]; Lev 7.81 ng/mL + EPI 0.00 uM
  percentage resazurin turnover: 102% and 106% and 72%
  Median REMA values (percentage resazurin turnover): 104% and 102%
[5]; Lev 15.63 ng/mL + EPI 0.00 uM
  percentage resazurin turnover: 100% and 112% and 143%
  Median REMA values (percentage resazurin turnover): 95% and 112%
[5]; Lev 31.25 ng/mL + EPI 0.00 uM
  percentage resazurin turnover: 88% and 76% and 139%
  Median REMA values (percentage resazurin turnover): 69% and 88%
[5]; Lev 62.50 ng/mL + EPI 0.00 uM
  percentage resazurin turnover: -0.208% and 0.0384% and 0.176%
  Median REMA values (percentage resazurin turnover): -0.588% and 0.0384%
[5]; Lev 500.00 ng/mL + EPI 0.00 uM
  percentage resazurin turnover: -0.171% and 0.0154% and 0.238%
  Median REMA values (percentage resazurin turnover): -0.604% and 0.0154%
[5]; Lev 1000 ng/mL + EPI 0.00 uM
  percentage resazurin turnover: -0.203% and 0.204% and -0.0468%
  Median REMA values (percentage resazurin turnover): -0.268% and -0.0468%
